Reference: patent US20060135587A1, “Method and compounds for promoting healing and reducing inflammation” (priority 2002, published 2006)

Columns and labels:
[1] = tested on: bone plate defect; assay: Repair of bone plate defect of the rat lower jaw; type: in vivo, rats; details: 50 mg/kg over the course of three months
Experimental: A round or oval defect of the bone plate with a diameter of 2.5 mm was produced in the bone tissue of the rat lower jaw, using a dental drill under ether anaesthesia. In the post-operative period, the animals were kept in separate cages, with normal food and water ad libitum. The experiments were performed on 130 male rats weighing 180-200 g, with 10 rats in each group.
The animal test groups were treated with Compound 2 (50 or 100 mg/kg) or methyl uracil (50 mg/kg) 24 hours after the damage and on a daily basis for three months. […] The following groups were used:
The repair pattern of the injured bone was assessed morphologically on tissue sections after 30, 60 and 90 days. The sections were examined by light microscopy at magnifications of ×15, ×100, ×200, and ×400.

[2] = tested on: bradykinin-induced inflammation; assay: Bradykinin-induced acute inflammation in rats; type: in vivo
Experimental: Acute inflammation was induced by sub-plantar injection of 0.1 ml of 0.01% of bradykinin in saline solution into the left paws of male rats weighing 180-200 g. The acuteness of the inflammation was assessed 30 minutes after injection of bradykinin by the change in the paw volume. The anti-inflammatory effect, assessed by the reduction of swelling, was expressed as a percentage of the initial paw […] compared to controls. The test substances were administered orally via an intra-gastric tube for three days and at one hour before administration of bradykinin. […] These were administered orally to rats for 3 days and at one hour before the injection of the agent. There were 12 rats in each group.

[3] = tested on: regeneration of liver after partial hepatectomy; assay: Liver regeneration after partial hepatectomy in rats; type: in vivo; details: for Level of recovery: 7 days, hepatectomy alone = 100
Experimental: Partial hepatectomy was performed using the conventional method (Higgins and Anderson, 1931) by removing the left lateral and central lobes of the liver from 80 male white rats, weighing 180-200 g.
Compound 2, Compound 4, Compound 5 or Compound 6 was administered to the experimental groups intraperitoneally in equimolar doses of 0.1 mM/kg and 0.2 mM/kg. These optimal doses were determined in preliminary experiments. The control group received intraperitoneal injections of saline solution. The compounds were administered on the day after the operation and then one injection was given daily over the course of 7 days, since maximum growth of the liver mass in rats is observed in the first 7 days after partial hepatectomy (Solopaev, 1980).
The effectiveness of the compounds was compared to that of a combination of non-steroid anabolic regeneration stimulators which are used in the treatment of liver pathology, namely Riboxin and potassium orotate at a dose of 0.2 mM/kg each (Rychnev and Frolov, 1984).
For quantitative evaluation of the regeneration process in the liver the coefficient of regeneration completion as determined by the formula below was used: [formula] where
Stimulation of the regeneration of tissue after hepatectomy in response to different medicinal preparations is associated with an increase in the synthesis of nucleic acids, as indicated by the increase in the content of RNA and DNA in the regenerated tissue. Quantitative analysis of DNA and RNA was performed by centrifugation. […] The enzymic component of anti-oxidant protection was also assessed on the basis of the activity of catalase and superoxidedismutase (SOD).
5 ml of […] of HCIO4 solution were added to the sample (100 mg). In order to ensure complete sedimentation of the acid-insoluble fraction, the beakers were put in ice for 15 minutes. Then they were centrifuged for 10 minutes at 5000 revolutions per minute. The sediment was washed twice with 0.2 M HCIO4. After the final centrifugation, the walls of the beaker were carefully dried with gauze and filter paper. The sediment was ground down with a glass pestle, suspended in 1 ml of water and then 1 ml of 0.6 M KON solution was added at room temperature. Hydrolysis was performed over the course of 1 hour at 37° C., then the beakers were put in ice to stop the hydrolysis process. 4 ml of the 0.6 M solution were added to each beaker and the beakers were left in ice for another 15 minutes, then centrifuged for 15 minutes at 5000 revolutions per minute. The supernatant was used to determine the RNA by UV absorption at 260 nm and 290 nm compared to the control sample containing 0.4M of HCIO4). The amount of RNA in μg per 1 ml of the supernatant was calculated using the following formula: [formula] where C=is the RNA concentration (μg/ml)
DNA analysis was carried out on the sediment remaining after the alkaline hydrolysis used to determine RNA. 0.5 M of HCIO4 (5 ml per sample) was poured into the dried beaker containing the sediment. Hydrolysis was performed in a boiling water bath for 20 minutes. The amount of DNA in μg per 1 ml of the hydrolysate was calculated using the following formula: [formula] where C=is the DNA concentration (μg/ml). Catalase Activity
Catalase activity was determined using the permanganate method. The optimal amount of the substrate (3 ml of 1% H2O2) and 1 ml of the enzyme were added to 10 ml of phosphate buffer, pH 7.8. After 10 minutes the reaction was stopped by adding 1.5 ml of H2SO4 (50%). The remaining hydrogen peroxide was filtered with 0.1M of KMnO4 solution. Catalase activity was calculated on the basis that 1 ml of 0.1M of KMnO4 solution corresponds to […] of H2O2.
SOD activity was determined using the dianisidine method, which is based on the fact that under ultraviolet irradiation Riboflavin (Rb) is converted to an excited (ionised) state and therefore becomes able to attack reduced dianisidine (DH2). […]

[4] = tested on: carbon tetrachloride-induced liver damage; assay: Carbon tetrachloride-induced liver damage in rats; type: in vivo; details: 20 mg/kg orally; CCl4 intoxication
Experimental: The prophylactic and therapeutic effects of Compound 2 on liver damage were examined in a carbon tetrachloride intoxication model. Liver dysfunction was induced by the […] injection of a liquid paraffin-based 50% carbon tetrachloride solution at a dose of 0.8 ml per 100 g of body mass daily for four days. Inbred male white rats weighing 200-220 g were treated with Compound 2 at a dose of 20 mg/kg given orally by intragastric tube on the eighth day after injection of carbon tetrachloride, and daily for four days thereafter. Control animals received carbon tetrachloride only. Animals were sacrificed 7 days after the last injection of carbon tetrachloride, when the morphological changes are most pronounced, and samples of liver were taken for histology.

SMILES: CC[n+]1cn(C)c(C(=O)NC)c1C(=O)NC.O=S(=O)([O-])c1ccccc1 [Compound 2, 1-methyl-3-ethyl-4,5-bis(N-methylcarbamoyl)-imidazolium benzenesulfonate]
- closing of bone defect [1]: the defect was almost fully closed by the newly formed primary callus bone tissue
- Increase in paw volume ([2]; 20 mg/kg orally): 0.41 mL
- Paw volume 30 minutes after administration of bradykinin ([2]; 20 mg/kg orally): 1.80 ± 0.060 mL
- Paw volume initial ([2]; 20 mg/kg orally): 1.39 ± 0.040 mL
- Swelling inhibition (%) ([2]; 20 mg/kg orally): 40.58%
- Increase in paw volume ([2]; 50 mg/kg orally): 0.34 mL
- Paw volume 30 minutes after administration of bradykinin ([2]; 50 mg/kg orally): 1.69 ± 0.060 mL
- Paw volume initial ([2]; 50 mg/kg orally): 1.35 ± 0.038 mL
- Swelling inhibition (%) ([2]; 50 mg/kg orally): 50.72%
- Catalase E activity ([3]; 0.1 mM/kg): 18.0 ± 3.1 μgM/min/g tissue × 1000
- DNA content (in mg/g of tissue) ([3]; 0.1 mM/kg): 4.2 ± 0.37 mg/g of tissue
- Protein content ([3]; 0.1 mM/kg): 86.4 ± 9.8 Mg/g tissue
- RNA content (mg/g of tissue) ([3]; 0.1 mM/kg): 7.07 ± 0.18 mg/g of tissue
- SOD activity ([3]; 0.1 mM/kg): 78.9 ± 5.8 Units/g tissue
- Level of recovery ([3]; 0.1 mM/kg intraperitoneally): 150.5
- DNA content higher than in animals undergoing hepatectomy alone ([3]; 0.1 mM/kg or 0.2 MM/kg): 15%
- Catalase E activity ([3]; 0.2 mM/kg): 20.0 ± 1.92 μgM/min/g tissue × 1000
- DNA content (in mg/g of tissue) ([3]; 0.2 mM/kg): 4.1 ± 0.13 mg/g of tissue
- Protein content ([3]; 0.2 mM/kg): 94.8 ± 8.4 Mg/g tissue
- RNA content (mg/g of tissue) ([3]; 0.2 mM/kg): 6.96 ± 0.39 mg/g of tissue
- SOD activity ([3]; 0.2 mM/kg): 98.0 ± 4.6 Units/g tissue
- Level of recovery ([3]; 0.2 mM/kg intraperitoneally): 134.9
- increase of the organ regeneration completeness ratio ([3]; 0.1 and 0.2 mM/kg): 34.9-50.5%
- Average mitotic index [4]: 0.021 ± 0.001 arbitrary
- Elimination of glycogen from damaged zones (arbitrary) [4]: 4.9 ± 0.4 arbitrary
- Necrosis of hepatocytes (arbitrary) [4]: 2.7 ± 0.3 arbitrary
